Source: patent US20210198256A1, “COMPOUNDS FOR THE DEGRADATION OF BRD9 OR MTH1” (C4 Therapeutics, Inc., priority 2018, published 2021)

Target: T1, BRD9 (Homo sapiens, UniProt Q9H8M2)
T1 sequence (Q9H8M2 1-597): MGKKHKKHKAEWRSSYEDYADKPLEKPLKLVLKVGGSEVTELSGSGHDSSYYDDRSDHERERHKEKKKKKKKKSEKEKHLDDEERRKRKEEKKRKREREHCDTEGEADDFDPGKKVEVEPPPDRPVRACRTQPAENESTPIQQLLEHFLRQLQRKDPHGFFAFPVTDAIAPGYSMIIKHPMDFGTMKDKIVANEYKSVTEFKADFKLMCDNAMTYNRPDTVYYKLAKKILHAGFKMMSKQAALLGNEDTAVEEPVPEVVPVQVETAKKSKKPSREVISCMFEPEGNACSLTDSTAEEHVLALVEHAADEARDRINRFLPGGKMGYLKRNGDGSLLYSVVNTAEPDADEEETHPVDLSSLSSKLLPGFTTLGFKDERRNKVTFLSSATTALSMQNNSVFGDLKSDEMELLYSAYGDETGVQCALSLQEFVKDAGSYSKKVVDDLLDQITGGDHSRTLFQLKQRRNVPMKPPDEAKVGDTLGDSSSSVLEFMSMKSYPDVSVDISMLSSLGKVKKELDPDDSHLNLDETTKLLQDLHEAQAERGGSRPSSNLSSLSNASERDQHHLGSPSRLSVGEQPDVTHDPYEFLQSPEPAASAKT
Assay: HiBit Lytic Assay (HiBit DC50, BRD9 degraders of Table 1)
Assay type: cell-based
Conditions: 11-point half log dose response, NanoLuc signal
Procedure: Example 3. HiBit Lytic Assay
• Compound is made at 10 mM, half log dilution, 11 points. • MDR plates can also be ordered from Frontier with same format. • 1. Barcode a 384LDV plate (384-well Low Dead Volume Microplate, Labcyte LP-0200) (Echo compatible) on the left side. • 2. Transfer 13.6 μL of 10 mM compound into column 1 of LDV plate (Labcyte). • 3. Fill column 2-11 and column 23 of MDR plate with 9.30 μL of DMSO. • 4. Serial dilute 3.16 fold from column 1 to 2 by transferring 4.30 μL from column 1 to column 2, and so on to column 11. *Change tip in every dilution to prevent compound carryover effect! • 5. Seal the plate with Plate Sealer, then store the MDR plate at room temperature for short term storage and in −20° C. for long term storage.
• Cells are treated with 30 nL of each compound at 10 mM, half log dilution, 11 points with final concentration of 1000 nM or 833 nM, half log dilution, 11 points, in duplicates. Final DMSO concentration is 0.1%. • 1. Barcode the plates made on the left side and label the plates with silver marker. • 2. Dispense with the following scheme: • a. 30 nL of compound into corresponding wells in cell plates via Echo550 with “MDR32_HiBiT16_30 nL”. Top concentration will be 1000 nM. • 3. Seal the plate with Plate Sealer.
• Cells are dispensed at density specified in Cell Line Table in 384-well microplate. • 1. Culture cells to between 50-80% of confluence in sterile culture flasks of appropriate size. • 2. For Adherent Cell Lines: • a. Aspirate off growth media in culture flask, and wash off the Phenol Red media with 5 mL of 1×PBS. • b. Add 5 mL of Trypsin to the cells, incubate at 37° C. for 5 minutes. • c. Add 5 mL of growth media to the trypsinzed cells, and resuspend. • 3. Remove 10 μL of cells, and resuspend the cells with 10 μL of Trypan Blue. Insert the solution to counting chamber slide, and count the cells via cell counter. • 4. Adjust the cell concentration to specified plating density, and strain the cells with cell strainer. • 5. Dispense the cells via E1-ClipTip™ Electronic Multichannel Pipettes or Multidrop™ Combi Reagent Dispenser with Standard tube dispensing cassette: • a. Prime the cassette with 10-20 mL of ddH2O. • b. Prime the cassette with 10-20 mL of cells. • c. Dispense the cells at low speed for 30 μL/well in Corning® 384 Well Low Flange Black Flat Bottom Polystyrene TC-Treated Microplate. • d. Wash the cassette with 10-20 mL of ddH2O, follow by 10-20 mL of 70% EtOH, then again with 10-20 mL of ddH2O. • 6. Incubate the plates at 37° C.×compound treatment time.
• 1. If not already, bring Nano-Glo® HiBiT Lytic Buffer to room temperature. • 2. Determine the amount of reagent needed. A volume of reagent equal to the volume of media in the well should be added (i.e. 30 μL of cells will need 30 μL of HiBiT Lytic reagent). • 3. Into a given volume of buffer, dilute the substrate 50-fold and the LgBiT protein 100-fold. For example, to make 10 ml of reagent, add the following: • 10 ml Nano-Glo® HiBiT Lytic Buffer • 200 μl Nano-Glo® HiBiT Lytic Substrate • 100 μl LgBiT Protein • The reagent should be reconstituted immediately before use. However, once reconstituted, it should take about 4 hours for the activity to decrease 10%. • 4. Cool down the cell plate to room temperature for 10-15 minutes without lid. • 5. Dispense the HiBiT Lytic Reagent via E1-ClipTip™ Electronic Multichannel Pipettes or Multidrop™ Combi Reagent Dispenser with Standard tube dispensing cassette: • a. Prime the cassette with 10-20 mL of ddH2O. • b. Prime the cassette with 10-20 mL of CTG 2.0. • c. Dispense the HiBiT Lytic Reagent at medium speed for 30 μL/well in cell plate to column 1-23 (column 24 will be used as plate background). • d. Wash the cassette with 10-20 mL of ddH2O, follow by 10-20 mL of 70% EtOH, then again with 10-20 mL of ddH2O. • 6. Incubate the cell plate at room temperature for 10 minutes without lid. • 7. […]

Row | Structure (SMILES) | DC50
1 | COc1cc(-c2cn(C)c(=O)c3c2cnn3C)cc(OC)c1CNCC(=O)NCCCCCCCCCc1cccc2c1C(=O)N(C1CCC(=O)NC1=O)C2=O (stereo not drawn) [Compound 208, 2-[[4-(1,6-dimethyl-7-oxo-pyrazolo[3,4-c]pyridin-4-yl)-2,6-dimethoxy-phenyl]methylamino]-N-[9-[2-(2,6-dioxo-3-piperidyl)-1,3-dioxo-isoindolin-4-yl]nonyl]acetamide] | < 100 nM
2 | COc1cc(-c2cn(C)c(=O)c3cnccc23)cc(F)c1CN(C)CC(=O)NCCCCCCCCNc1cccc2c1C(=O)N(C1CCC(=O)NC1=O)C2=O (stereo not drawn) [Compound 222, N-[8-[[2-(2,6-dioxo-3-piperidyl)-1,3-dioxo-isoindolin-4-yl]amino]octyl]-2-[[2-fluoro-6-methoxy-4-(2-methyl-1-oxo-2,7-naphthyridin-4-yl)phenyl]methyl-methyl-amino]acetamide] | < 100 nM
3 | COc1cc(-c2cn(C)c(=O)c3[nH]ncc23)cc(OC)c1CNCC(=O)NCCCCCCCCCc1cccc2c1C(=O)N(C1CCC(=O)NC1=O)C2=O (stereo not drawn) [Compound 204, 2-[[2,6-dimethoxy-4-(6-methyl-7-oxo-1H-pyrazolo[3,4-c]pyridin-4-yl)phenyl]methylamino]-N-[9-[2-(2,6-dioxo-3-piperidyl)-1,3-dioxo-isoindolin-4-yl]nonyl]acetamide] | < 100 nM
4 | COc1cc(-c2cn(C)c(=O)c3c2cnn3C)cc(OC)c1CN(C)CC(=O)NCCCCCCCCNc1cccc2c1C(=O)N(C1CCC(=O)NC1=O)C2=O (stereo not drawn) [Compound 200, 2-[[4-(1,6-dimethyl-7-oxo-pyrazolo[3,4-c]pyridin-4-yl)-2,6-dimethoxy-phenyl]methyl-methyl-amino]-N-[8-[[2-(2,6-dioxo-3-piperidyl)-1,3-dioxo-isoindolin-4-yl]amino]octyl]acetamide] | < 100 nM
5 | COc1cc(-c2cn(C)c(=O)c3[nH]ncc23)cc(OC)c1CNCC(=O)NCCCCCNC(=O)CCc1ccc2c(c1)C(=O)N(C1CCC(=O)NC1=O)C2=O (stereo not drawn) [Compound 207, N-[5-[[2-[[2,6-dimethoxy-4-(6-methyl-7-oxo-1H-pyrazolo[3,4-c]pyridin-4 yl)phenyl]methylamino]acetyl]amino]pentyl]-3-[2-(2,6-dioxo-3-piperidyl)-1,3-dioxo-isoindolin-5-yl]propanamide] | < 100 nM
6 | COc1cc(-c2cn(C)c(=O)c(C)n2)cc(OC)c1CN(C)CC(=O)NCCCCCCCCNc1cccc2c1C(=O)N(C1CCC(=O)NC1=O)C2=O (stereo not drawn) [Compound 225, 2-((4-(4,6-dimethyl-5-oxo-4,5-dihydropyrazin-2-yl)-2,6-dimethoxybenzyl)(methyl)amino)-N-(8-((2-(2,6-dioxopiperidin-3-yl)-1,3-dioxoisoindolin-4-yl)amino)octyl)acetamide] | < 100 nM
7 | COc1cc(-c2cn(C)c(=O)c3cnccc23)cc(OC)c1C(C)N(C)CC(=O)NCCCCCCCCNc1cccc2c1C(=O)N(C1CCC(=O)NC1=O)C2=O (stereo not drawn) [Compound 224, 2-[1-[2,6-dimethoxy-4-(2-methyl-1-oxo-2,7-naphthyridin-4-yl)phenyl]ethyl-methyl-amino]-N-[8-[[2-(2,6-dioxo-3-piperidyl)-1,3-dioxo-isoindolin-4-yl]amino]octyl]acetamide] | < 100 nM
8 | COc1cc(-c2cn(C)c(=O)c3c2ccn3C)cc(OC)c1CN(C)CC(=O)NCCCCCCCCNc1cccc2c1CN(C1CCC(=O)NC1=O)C2=O (stereo not drawn) [Compound 220, 2-[[4-(1,6-dimethyl-7-oxo-pyrrolo[2,3-c]pyridin-4-yl)-2,6-dimethoxy-phenyl]methyl-methyl-amino]-N-[8-[[2-(2,6-dioxo-3-piperidyl)-1-oxo-isoindolin-4-yl]amino]octyl]acetamide] | < 100 nM

Second part, the compound after the results:

Row | DC50 | Structure (SMILES)
9 | < 100 nM | COc1cc(-c2cn(C)c(=O)c3cnccc23)cc(OC)c1CNCC(=O)NCCCCCCCCNc1cccc2c1C(=O)N(C1CCC(=O)NC1=O)C2=O (stereo not drawn) [Compound 221, 2-[[2,6-dimethoxy-4-(2-methyl-1-oxo-2,7-naphthyridin-4-yl)phenyl]methylamino]-N-[8-[[2-(2,6-dioxo-3-piperidyl)-1,3-dioxo-isoindolin-4-yl]amino]octyl]acetamide]
10 | < 100 nM | COc1cc(-c2cn(C)c(=O)c3c2cnn3C)cc(OC)c1CNCC(=O)NCCCCCCCCCc1ccc2c(c1)C(=O)N(C1CCC(=O)NC1=O)C2=O (stereo not drawn) [Compound 206]
11 | < 100 nM | COc1cc(-c2cn(C)c(=O)c3cnccc23)cc(OC)c1COCC(=O)NCCCCCCCCNc1cccc2c1C(=O)N(C1CCC(=O)NC1=O)C2=O (stereo not drawn) [Compound 223, 2-[[2,6-dimethoxy-4-(2-methyl-1-oxo-2,7-naphthyridin-4-yl)phenyl]methoxy]-N-[8-[[2-(2,6-dioxo-3-piperidyl)-1,3-dioxo-isoindolin-4-yl]amino]octyl]acetamide]
12 | < 1000 nM | COc1cc(-c2cn(C)c(=O)c3c2ccn3C)cc(OC)c1CN(C)CC(=O)NCCCCCCCCNC(=O)c1ccc(=O)n(C2CCC(=O)NC2=O)c1 (stereo not drawn) [Compound 218, N-[8-[[2-[[4-(1,6-dimethyl-7-oxo-pyrrolo[2,3-c]pyridin-4-yl)-2,6-dimethoxy-phenyl]methyl-methyl-amino]acetyl]amino]octyl]-1-(2,6-dioxo-3-piperidyl)-6-oxo-pyridine-3-carboxamide]
13 | < 100 nM | COc1cc(-c2cn(C)c(=O)c3[nH]ncc23)cc(OC)c1CN(C)CC(=O)NCCCCCCCCNc1cccc2c1C(=O)N(C1CCC(=O)NC1=O)C2=O (stereo not drawn) [Compound 201, 2-[[2,6-dimethoxy-4-(6-methyl-7-oxo-1H-pyrazolo[3,4-c]pyridin-4-yl)phenyl]methyl-methyl-amino]-N-[8-[[2-(2,6-dioxo-3-piperidyl)-1,3-dioxo-isoindolin-4-yl]amino]octyl]acetamide]
14 | < 100 nM | COc1cc(-c2cn(C)c(=O)c3c2ccn3C)cc(OC)c1CN(C)CC(=O)NCCCCCCCCNc1cccc2c1C(=O)N(C1CCC(=O)NC1=O)C2=O (stereo not drawn) [Compound 209, 2-[[4-(1,6-dimethyl-7-oxo-pyrrolo[2,3-c]pyridin-4-yl)-2,6-dimethoxy-phenyl]methyl-methyl-amino]-N-[8-[[2-(2,6-dioxo-3-piperidyl)-1,3-dioxo-isoindolin-4-yl]amino]octyl]acetamide]
15 | < 100 nM | COc1cc(-c2cn(C)c(=O)c3[nH]ncc23)cc(OC)c1CNCC(=O)NCCCCCCCCCc1ccc2c(c1)C(=O)N(C1CCC(=O)NC1=O)C2=O (stereo not drawn) [Compound 202, 2-[[2,6-dimethoxy-4-(6-methyl-7-oxo-1H-pyrazolo[3,4-c]pyridin-4-yl)phenyl]methylamino]-N-[9-[2-(2,6-dioxo-3-piperidyl)-1,3-dioxo-isoindolin-5-yl]nonyl]acetamide]
